Assay results reported in patent US20050282743A1, “Molecular interactions in cells” (Arbor Vita Corporation, priority 2001, published 2005).
Read-outs that look alike come from different tables or passages of the source. Ends that are not written are not given here. Peptide text beside a SMILES is read from it. * marks the point of attachment. Biotin = O=C1N[C@H]2[C@H](CS[C@H]2CCCCC(=O)*)N1

Experiments:
[1] = target: T1, PDZ protein (GST-PDZ fusion) (Homo sapiens, UniProt Q12959); assay: G' assay (10 uM PL peptide), results of TABLE 7 and TABLE 12; type: binding
T1 construct: made in house; host or cells: E. coli (DH5alpha, BL21 or JM109)
T1 sequence (Q12959 whole entry, the tested form may be a part): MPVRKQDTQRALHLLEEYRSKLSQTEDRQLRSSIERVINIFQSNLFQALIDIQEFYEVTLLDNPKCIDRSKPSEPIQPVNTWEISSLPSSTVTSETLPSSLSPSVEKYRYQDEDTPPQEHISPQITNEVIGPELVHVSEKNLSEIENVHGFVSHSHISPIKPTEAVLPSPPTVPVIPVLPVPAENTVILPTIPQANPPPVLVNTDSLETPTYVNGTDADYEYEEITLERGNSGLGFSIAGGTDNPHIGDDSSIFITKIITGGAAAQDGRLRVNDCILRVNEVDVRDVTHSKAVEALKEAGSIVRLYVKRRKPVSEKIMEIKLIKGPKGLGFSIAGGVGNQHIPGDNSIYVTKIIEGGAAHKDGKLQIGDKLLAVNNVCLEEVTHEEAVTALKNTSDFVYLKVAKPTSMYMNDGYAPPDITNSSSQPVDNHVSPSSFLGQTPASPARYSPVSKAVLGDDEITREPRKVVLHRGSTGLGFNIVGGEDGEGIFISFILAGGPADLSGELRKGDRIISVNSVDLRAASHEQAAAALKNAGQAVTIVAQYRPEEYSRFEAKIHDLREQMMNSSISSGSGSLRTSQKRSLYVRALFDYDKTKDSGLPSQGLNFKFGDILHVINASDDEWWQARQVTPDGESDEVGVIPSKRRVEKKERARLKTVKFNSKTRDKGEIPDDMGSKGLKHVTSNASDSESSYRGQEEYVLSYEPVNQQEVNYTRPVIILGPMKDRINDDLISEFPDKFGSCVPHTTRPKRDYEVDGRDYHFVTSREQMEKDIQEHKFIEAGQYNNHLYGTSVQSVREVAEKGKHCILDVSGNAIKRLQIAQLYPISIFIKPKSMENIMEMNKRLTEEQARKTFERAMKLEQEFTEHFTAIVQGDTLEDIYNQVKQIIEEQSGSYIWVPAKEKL
Outline: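 Biotin-PL peptide (N-term label), 10 uM vs GST-PDZ; protein 5 ug/ml by default. A450 nm binned: 1 = 0-1, 2 = 1-2, 3 = 2-3, 4 = 3-4, 5 = >4 on >2 repeats, 0 = no binding.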

[2] = target: PDZ-domain polypeptide (GST/PDZ fusion protein); assay: Apparent affinity (Kd) by titration of PL peptide in the G assay; type: binding; conditions: read-out: Peptide Optimal Conc (Kd by titration of the PL peptide)
Outline: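 A fixed concentration of GST/PDZ fusion protein, 5 ug/ml by default, was mixed in solution with increasing labeled PL peptide (e.g. 0.1 uM-1 mM). Reaction times ranged from 10 minutes to 2 days at 4-37° C. Complexes were separated from free peptide and detected via the label as in the G assay, apparent affinity coming from the saturating concentration.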

Row | Compound | Classification ([1]; PDZ DLG1, PDZ Domain 1, 2) | Classification ([1]; PDZ DLG1, PDZ Domain 2) | other results
1 | CC[C@H](C)[C@H](NC(=O)[C@H](Cc1c[nH]cn1)NC(=O)[C@H](C)NC(=O)[C@H](C)NC(=O)[C@H](CO)NC(=O)[C@@H]1CCCN1C(=O)[C@H](CCCNC(=N)N)NC(=O)[C@H](CC(=O)O)NC(=O)[C@H](CCCCN)NC(=O)[C@@H]1CCCN1C(=O)[C@H](CC(=O)O)NC(=O)[C@H](CCC(=O)O)NC(=O)CCCC[C@@H]1SC[C@@H]2NC(=O)N[C@@H]21)C(=O)N[C@H](C(=O)N[C@@H](CCC(=O)O)C(=O)N[C@@H](C)C(=O)N[C@@H](CC(C)C)C(=O)N[C@@H](CCC(=O)O)C(=O)N[C@H](C(=O)N[C@@H](CC(=O)O)C(=O)N[C@H](C(=O)O)C(C)C)[C@@H](C)O)C(C)C [PDZ-binding kinase (PBK)] (Biotin-EDPKDRPSAAHIVEALETDV-OH; C-terminus assumed) | 1 (A450 nm 0-1) |  | 
2 | CC[C@H](C)[C@H](NC(=O)[C@H](CC(=O)O)NC(=O)[C@H](CCC(=O)O)NC(=O)[C@H](CCCNC(=N)N)NC(=O)[C@@H](NC(=O)CCCC[C@@H]1SC[C@@H]2NC(=O)N[C@@H]21)[C@@H](C)O)C(=O)N[C@@H](Cc1ccc(O)cc1)C(=O)N[C@H](C(=O)N[C@@H](CC(N)=O)C(=O)N[C@@H](Cc1ccc(O)cc1)C(=O)N1CCC[C@H]1C(=O)N[C@H](C(=O)N[C@@H](Cc1ccccc1)C(=O)N[C@@H](CO)C(=O)N[C@@H](CCCNC(=N)N)C(=O)N[C@@H](CCCNC(=N)N)C(=O)N1CCC[C@H]1C(=O)N[C@@H](CCCCN)C(=O)N[C@H](C(=O)N[C@@H](CCCNC(=N)N)C(=O)N[C@H](C(=O)O)C(C)C)[C@@H](C)O)[C@@H](C)O)C(C)C [DNAM-1] (Biotin-TREDIYVNYPTFSRRPKTRV-OH; C-terminus assumed) |  |  | Kd ([2]; PDZ BAI-1, PDZ Domain 2): 4000 nM
3 | GGGGGSGGGGGSGIESVKI [GLUR2 (glutamate receptor 2-modified)] | 2 (A450 nm 1-2) | 1 (A450 nm 0-1) | 
4 | CC(C)C[C@H](NC(=O)[C@H](CC(C)C)NC(=O)[C@@H](NC(=O)[C@H](CC(=O)O)NC(=O)CCCC[C@@H]1SC[C@@H]2NC(=O)N[C@@H]21)[C@@H](C)O)C(=O)N[C@@H](CC(C)C)C(=O)N[C@H](C(=O)N[C@@H](CCC(=O)O)C(=O)N[C@@H](CC(N)=O)C(=O)N[C@@H](CCC(=O)O)C(=O)NCC(=O)N[C@@H](CC(=O)O)C(=O)N[C@@H](CCCCN)C(=O)N[C@H](C(=O)N[C@@H](CCC(=O)O)C(=O)N[C@@H](CCC(=O)O)C(=O)N[C@@H](CCC(N)=O)C(=O)N[C@H](C(=O)N[C@@H](CO)C(=O)N[C@@H](Cc1ccc(O)cc1)C(=O)N[C@H](C(=O)O)C(C)C)C(C)C)[C@@H](C)O)[C@@H](C)O [5H2B_HUMAN] (Biotin-DTLLLTENEGDKTEEQVSYV-OH; C-terminus assumed) |  |  | Kd ([2]; PDZ BAI-1, PDZ Domain 3): 2000 nM
5 | CC[C@H](C)[C@H](NC(=O)[C@H](CCC(=O)O)NC(=O)[C@H](CO)NC(=O)[C@H](CCC(=O)O)NC(=O)[C@H](CCCNC(=N)N)NC(=O)[C@H](CCCNC(=N)N)NC(=O)[C@H](CC(C)C)NC(=O)[C@@H]1CCCN1C(=O)[C@H](CCCNC(=N)N)NC(=O)[C@@H]1CCCN1C(=O)[C@H](CCC(=O)O)NC(=O)[C@H](CC(C)C)NC(=O)[C@@H]1CCCN1C(=O)[C@@H](NC(=O)[C@H](CO)NC(=O)[C@H](C)NC(=O)[C@H](CCC(N)=O)NC(=O)[C@H](CC(N)=O)NC(=O)[C@H](Cc1c[nH]cn1)NC(=O)[C@H](CC(C)C)NC(=O)CCCC[C@@H]1SC[C@@H]2NC(=O)N[C@@H]21)C(C)C)C(=O)O [Kir2.1 (inwardly rect. K+ channel)] (Biotin-LHNQASVPLEPRPLRRESEI-OH; C-terminus assumed) | 2 (A450 nm 1-2) | 1 (A450 nm 0-1) | 
6 | CC(C)C[C@H](NC(=O)[C@H](Cc1c[nH]c2ccccc12)NC(=O)[C@H](Cc1c[nH]cn1)NC(=O)[C@H](CCCNC(=N)N)NC(=O)[C@H](CC(C)C)NC(=O)[C@@H](NC(=O)[C@H](Cc1ccccc1)NC(=O)[C@H](CCC(N)=O)NC(=O)[C@H](CCCNC(=N)N)NC(=O)[C@@H](NC(=O)[C@H](CCC(=O)O)NC(=O)CNC(=O)[C@H](CCCNC(=N)N)NC(=O)[C@H](CC(=O)O)NC(=O)[C@@H](NC(=O)[C@H](CC(C)C)NC(=O)[C@H](CCC(=O)O)NC(=O)[C@H](CCCNC(=N)N)NC(=O)CCCC[C@@H]1SC[C@@H]2NC(=O)N[C@@H]21)C(C)C)C(C)C)[C@@H](C)O)C(=O)N[C@@H](CCCCN)C(=O)N[C@H](C(=O)O)C(C)C [Dopamine transporter (Na+-dependent)] (Biotin-RELVDRGEVRQFTLRHWLKV-OH; C-terminus assumed) |  |  | Kd ([2]; PDZ HEMBA 1003117, PDZ Domain 1): 300 nM
7 | ISGTPTSTMVHGMTSSSSVV (Biotin-ISGTPTSTMVHGMTSSSSVV) [Clasp-2] |  | 1 (A450 nm 0-1) | Classification ([1]; PDZ DLG1, PDZ Domain 1): 1 (A450 nm 0-1)
8 | SLKPGTVLPPPPYRHRNTVV (Biotin-SLKPGTVLPPPPYRHRNTVV) [ErbB-4 receptor] | 1 (A450 nm 0-1) |  | 
9 | CC[C@H](C)[C@H](NC(=O)[C@H](CCC(N)=O)NC(=O)[C@@H](NC(=O)[C@H](Cc1c[nH]cn1)NC(=O)[C@H](CCC(N)=O)NC(=O)[C@H](CC(=O)O)NC(=O)[C@H](CCC(=O)O)NC(=O)[C@H](CC(=O)O)NC(=O)[C@H](Cc1ccccc1)NC(=O)[C@@H]1CCCN1C(=O)[C@H](CCC(=O)O)NC(=O)[C@H](CC(N)=O)NC(=O)[C@H](CCC(=O)O)NC(=O)[C@@H]1CCCN1C(=O)[C@H](CC(=O)O)NC(=O)[C@H](CO)NC(=O)[C@H](CC(=O)O)NC(=O)CCCC[C@@H]1SC[C@@H]2NC(=O)N[C@@H]21)[C@@H](C)O)C(=O)N[C@H](C(=O)N[C@@H](CCCCN)C(=O)N[C@H](C(=O)O)C(C)C)[C@@H](C)O [PTEN] |  |  | Kd ([2]; PDZ SHANK, PDZ Domain 1): 1500 nM
10 | GPVPGEPAKPKTSAHHATFV (Biotin-GPVPGEPAKPKTSAHHATFV) | 1 (A450 nm 0-1) |  | 
11 | APC—adenomatous polyposis coli protein (ESSGTQSPKRHSGSYLVTSV) | 5 (A450 nm of 4 more than 2× repeated) |  | 
12 | PYSELNYETSHYPASPDSWV (Biotin-PYSELNYETSHYPASPDSWV) [catenin - delta 2] | 3 (A450 nm 2-3) | 2 (A450 nm 1-2) | Classification ([1]; PDZ DLG1, PDZ Domain 1): 1 (A450 nm 0-1)
13 | CC[C@H](C)[C@H](NC(=O)[C@H](CCC(=O)O)NC(=O)[C@H](CC(N)=O)NC(=O)[C@H](CCCNC(=N)N)NC(=O)[C@H](Cc1ccccc1)NC(=O)[C@H](CC(N)=O)NC(=O)[C@H](CO)NC(=O)[C@H](CC(N)=O)NC(=O)[C@H](CCC(=O)O)NC(=O)[C@H](CO)NC(=O)[C@H](CC(=O)O)NC(=O)[C@H](CO)NC(=O)[C@@H](NC(=O)[C@@H](NC(=O)[C@H](CC(=O)O)NC(=O)[C@H](CCCCN)NC(=O)CCCC[C@@H]1SC[C@@H]2NC(=O)N[C@@H]21)[C@@H](C)CC)[C@@H](C)O)C(=O)N[C@@H](CCC(N)=O)C(=O)N[C@@H](CO)C(=O)N[C@@H](CC(C)C)C(=O)N[C@H](C(=O)O)C(C)C [CD95] (Biotin-KDITSDSENSNFRNEIQSLV-OH; C-terminus assumed) |  | 1 (A450 nm 0-1) | 
